How the values were obtained:
[1] = target: bovine serum albumin (BSA) (Bos taurus, UniProt P02769); assay: Site-marker displacement (phenylbutazone, ibuprofen) on BSA, fluorescence; assay type: binding; set-up: purchased Sigma Aldrich; conditions: 297 K, BSA 5.0 µM, marker 10.0 µM
Experimental: To check if L1–L3 bind to BSA at the two Sudlow drug sites (site 1 and 2 [34, 60]), displacement studies were conducted by using phenylbutazone (PHB) and ibuprofen (IBP) as site probes. […] The fluorescence emission spectra of BSA and site markers during the titration of L1–L3 were recorded. The experimental data were analyzed using Equation (3). Binding constants in the presence of site markers were calculated and compared with Kb without PHB or IBP.
Concentrations of BSA and site markers were set at 5.0 × 10^−6 and 10.0 × 10^−6 moldm^−3, respectively.

BSA = target: T1, BSA (Bos taurus, UniProt P02769); assay: ATR-FTIR Amide I deconvolution, secondary structure of BSA with peptide; set-up: species or system bovine; conditions: for Random Coil of BSA / β-Anti of BSA / β-Sheet of BSA / β-Turn of BSA / α-Helix of BSA: ATR-FTIR Amide I
T1 construct: purchased Sigma Aldrich
From the text: The perturbation in protein structure conformation can be monitored by CD spectroscopy as well as the ATR-FTIR method. These secondary structure changes are confirmation of the interaction between the studied compound and the protein [64, 65, 66, 67]. The range of the wavenumber from 1700 to 1000 cm^−1 is the most varied region and with the richest information on protein spectra. The most characteristic bands are Amide I and Amide II, which originate from the C=O stretching vibration and C–N– stretching coupled with N–H bending, respectively. Amide I was detected for BSA at 1652 cm^−1 and GGF at 1637 cm^−1 (Figure 4). The differences in the position of these bands are connected with the variety in the secondary structure conformation, while Amide II consistently occurred at 1545 and 1546 cm^−1 on the BSA and GGF spectra, respectively (Figure 4). The much less intense peak of Amide III usually accrued by C–N– stretching and bending vibration was only noticed in the BSA spectrum at 1307 cm^−1 (Figure 4). The peaks detected at 1454 cm^−1 (BSA) and 1452 cm^−1 (GGF) appeared by CH3 group symmetric and asymmetric bending vibration (δs, δas). The absorption signal 1400 cm^−1 may be assigned to stretching vibration (ν) caused by the carboxylic group (COO^−). The studied peptides interact with BSA and GGF, which is manifested by a reduction in the intensity of the absorption peaks (Figure 4). With the increase in the ligand concentration in the protein solution, the intensity of the absorption peaks decreased (Figure 4). The Amide I and II in the BSA spectrum decreased above all after binding with L1 and slightly in the samples from L2 and L3. […] Moreover, after the complexation of the investigated peptides with GGF, an increase in the band 1060 cm^−1 was responsible for stretching vibration C–O absorption, which was manifested the most by L2 and L3 compounds.
The shape and intensity variation in the Amide I band is the confirmation of peptide L1, L2, and L3 interaction with the protein’s backbone. The hydrogen bonds in the protein structure are violated after the active molecules’ binding and influence the frequency of the C=O vibrations’ absorption. The frequency of stretching vibrations can be reduced after changes in hydrogen bonding in the protein, whereas the frequency of bending vibrations can be increased after ligand to protein complexation. The Byler and Susi procedure was used to analyse the secondary structure protein conformation. The quantity analysis of the secondary structure in the protein is mostly conducted based on Amide I deconvolution, and it is the most frequently analyzed vibration band, which is very vulnerable to the detection of changes in the structure. The fragment of each normalized spectrum with the Amide I peak was extracted and a second derivate was made. The self-deconvolution and curve fitting by the Gaussian/Lorenzian function allowed determination of the intensity and total area under the peaks, which corresponds with the contribution of the type of structure. The position of each band component may be assigned to a corresponding shape of the secondary structure: the α-helix (1660–1647 cm^−1), β-sheet (1640–1610 cm^−1), β-turn (1660–1680 cm^−1), β-antiparallel (1681–1695 cm^−1), and random coil (1650–1630 cm^−1) structures.
The infrared spectra were measured on Nicolet iS50 FTIR (Thermo Scientific, Waltham, MA, USA) spectrometer equipped with Attenuated Total Reflectance (ATR) accessory. The deuterated triglicyne sulphate (DTGS) detector and KBr beam splitter were applied. The spectral data were recorded within the range of 4000 to 600 cm^−1 with a resolution of 4 cm^−1 and 100 scans were averaged for each spectrum. The measurements were accomplished at room temperature. The concentration of blood plasma proteins BSA (Sigma Aldrich, USA), and GGF (Sigma Aldrich, USA) were 6.5 × 10^−4 moldm^−3. […]

T1 sequence (P02769 25-607): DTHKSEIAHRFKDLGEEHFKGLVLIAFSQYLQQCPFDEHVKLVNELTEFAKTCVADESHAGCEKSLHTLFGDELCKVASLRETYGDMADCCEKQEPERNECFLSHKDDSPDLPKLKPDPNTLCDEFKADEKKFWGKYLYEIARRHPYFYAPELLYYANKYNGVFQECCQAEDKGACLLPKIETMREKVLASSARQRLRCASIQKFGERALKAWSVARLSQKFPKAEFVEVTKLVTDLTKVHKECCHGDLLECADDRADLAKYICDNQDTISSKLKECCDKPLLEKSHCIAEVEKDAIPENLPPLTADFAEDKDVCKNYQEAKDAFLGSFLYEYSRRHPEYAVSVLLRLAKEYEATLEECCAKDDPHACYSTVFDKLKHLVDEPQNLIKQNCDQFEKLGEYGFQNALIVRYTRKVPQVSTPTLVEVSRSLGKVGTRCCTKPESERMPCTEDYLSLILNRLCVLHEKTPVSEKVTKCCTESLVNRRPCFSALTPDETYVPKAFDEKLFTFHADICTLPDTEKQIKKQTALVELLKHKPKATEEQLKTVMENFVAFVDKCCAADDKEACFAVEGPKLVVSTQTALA
bovine serum albumin (BSA), sequence (P02769 25-607): as above

logKb ([1]; BSA + IBP (site II)): 4.03 ± 0.15
logKb ([1]; BSA + PHB (site I)): 4.00 ± 0.12
Random Coil of BSA (BSA; BSA/peptide 1:0.5): 26.54%
β-Anti of BSA (BSA; BSA/peptide 1:0.5): 0.77%
β-Sheet of BSA (BSA; BSA/peptide 1:0.5): 3.87%
β-Turn of BSA (BSA; BSA/peptide 1:0.5): 7.47%
α-Helix of BSA (BSA; BSA/peptide 1:0.5, BSA 6.5 × 10^−4 M, room temperature): 61.36%
Random Coil of BSA (BSA; BSA/peptide 1:1.0): 27.93%
α-Helix of BSA (BSA; BSA/peptide 1:1.0): 49.45%
β-Anti of BSA (BSA; BSA/peptide 1:1.0): 0.49%
β-Sheet of BSA (BSA; BSA/peptide 1:1.0): 8.28%
β-Turn of BSA (BSA; BSA/peptide 1:1.0): 13.86%
Random Coil of BSA (BSA; BSA/peptide 1:1.5): 27.61%
α-Helix of BSA (BSA; BSA/peptide 1:1.5): 49.40%
β-Anti of BSA (BSA; BSA/peptide 1:1.5): 0.31%
β-Sheet of BSA (BSA; BSA/peptide 1:1.5): 8.69%
β-Turn of BSA (BSA; BSA/peptide 1:1.5): 13.99%
differences in the secondary structure of BSA (BSA; ATR-FTIR, after peptide addition): 16%
decrease of β-antiparallel framework of albumin (BSA; ATR-FTIR, versus free BSA): about 2%
growth of β-sheet of albumin (BSA; ATR-FTIR, versus free BSA): 7.05%
growth of β-turn of albumin (BSA; ATR-FTIR, versus free BSA): 7.34%
increase in the share of the random structure of albumin (BSA; ATR-FTIR, versus free BSA): 2%
reduction in the α-helix of albumin (BSA; ATR-FTIR, versus free BSA): more than 14%
Substance: Lys-Dab-Dab-Gly-Orn-Pro-His-Lys-Arg-Lys-Dbt [L1]
